Consider one molecule from ChEMBL document CHEMBL4765292, “Flexible diaminodihydrotriazine inhibitors of Plasmodium falciparum dihydrofolate reductase: Binding strengths, modes of binding and their antimalarial activities” (Eur J Med Chem, 2020).

As a reminder, the IC50 is the concentration that inhibits the measured activity by half. By Ki is commonly meant the equilibrium dissociation constant of an inhibitor or competing ligand from its target.

Data set [1] deals with Plasmodium falciparum. Nature of the data set: Antimalarial activity against Plasmodium falciparum CsI-2 harboring DHFR C59R/S108N/I164L mutant infected in human erythrocytes assessed as reduction in [3H]-hypoxanthine incorporation pretreated for 20 hrs followed by [3H]-hypoxanthine addition measured after 20 hrs by radioactivity method. The data set is classed as functional, organism-based. Particulars: CsI-2, Erythrocyte.

Data set [2] can be described thus: Therapeutic index, ratio of IC50 for African green monkey Vero cells to IC50 for Plasmodium falciparum V1/S harboring DHFR N51I/C59R/S108N/I164L mutant. The data set is classed as toxicity. Particulars: read-out: Ratio IC50.
For data set [3], the system named is Plasmodium falciparum. As to the kind of experiment: Antimalarial activity against Plasmodium falciparum T9/94 RC17 harboring DHFR A16V/S108T mutant infected in human erythrocytes assessed as reduction in [3H]-hypoxanthine incorporation pretreated for 20 hrs followed by [3H]-hypoxanthine addition measured after 20 hrs by radioactivity method. Format: functional, organism-based. Particulars: T9/94 RC17, Erythrocyte.

In data set [4] the test system is DHFR (human against Plasmodium falciparum DHFR double mutant). Nature of the data set: Selectivity index, ratio of Ki for human DHFR expressed in Escherichia coli BL21 to Ki for Plasmodium falciparum DHFR double mutant expressed in Escherichia coli BL21. Format: toxicity. The settings on record: read-out: Ratio Ki.
Data set [5] is described as follows: Inhibition of Plasmodium falciparum DHFR […] mutant expressed in Escherichia coli BL21 using DHF as substrate by spectrophotometric analysis.
The nature of data set [6]: Inhibition of Plasmodium falciparum DHFR N51I/C59R/S108N mutant expressed in Escherichia coli BL21 using DHF as substrate by spectrophotometric analysis.
Data set [7] has as its system DHFR (human against Plasmodium falciparum DHFR N51I/C59R/S108N/I164L mutant). As to the kind of experiment: Selectivity index, ratio of Ki for human DHFR expressed in Escherichia coli BL21 to Ki for Plasmodium falciparum DHFR N51I/C59R/S108N/I164L mutant expressed in Escherichia coli BL21. Format: toxicity. Particulars: read-out: Ratio Ki.
The test system of data set [8] is Plasmodium falciparum. As to the kind of experiment: Antimalarial activity against Plasmodium falciparum TM4/8.2 infected in human erythrocytes assessed as reduction in [3H]-hypoxanthine incorporation pretreated for 20 hrs followed by [3H]-hypoxanthine addition measured after 20 hrs by radioactivity method. The data set is classed as functional, organism-based.

A short description of data set [9]: Therapeutic index, ratio of IC50 for African green monkey Vero cells to IC50 for Plasmodium falciparum TM4/8.2. The settings on record: against Plasmodium falciparum TM4/8.2, read-out: Ratio IC50. Format: toxicity.
Data set [10] is described as follows: Therapeutic index, ratio of IC50 for African green monkey Vero cells to IC50 for Plasmodium falciparum K1CB1 harboring DHFR […] mutant. Format: toxicity. Particulars: read-out: Ratio IC50.
Data set [11] is described as follows: Inhibition of Plasmodium falciparum DHFR using DHF as substrate by spectrophotometric analysis.
The test system of a further data set is Vero. Nature of the data set: Cytotoxicity against African green monkey Vero cells assessed as reduction in cell viability incubated for 72 hrs by SRB assay. The data set is classed as cell-based. The settings on record: Chlorocebus sabaeus. In general terms: Sulforhodamine B stains cellular protein and so reports cell mass.
The nature of data set [12]: Inhibition of Plasmodium falciparum DHFR C59R/S108N/I164L mutant expressed in Escherichia coli BL21 using DHF as substrate by spectrophotometric analysis.
For data set [13], the system named is Plasmodium falciparum. Nature of the data set: Antimalarial activity against Plasmodium falciparum V1/S harboring DHFR N51I/C59R/S108N/I164L mutant infected in human erythrocytes assessed as reduction in [3H]-hypoxanthine incorporation pretreated for 20 hrs followed by [3H]-hypoxanthine addition measured after 20 hrs by radioactivity method. Particulars: Erythrocyte. Format: functional, organism-based.

Data set [14] is described as follows: Inhibition of Plasmodium falciparum DHFR N51I/C59R/S108N/I164L mutant expressed in Escherichia coli BL21 using DHF as substrate by spectrophotometric analysis.
The subject of data set [15] is Plasmodium falciparum. As to the kind of experiment: Antimalarial activity against Plasmodium falciparum W2 harboring DHFR N51I/C59R/S108N mutant infected in human erythrocytes assessed as reduction in [3H]-hypoxanthine incorporation pretreated for 20 hrs followed by [3H]-hypoxanthine addition measured after 20 hrs by radioactivity method. Format: functional, organism-based. The settings on record: W2, Erythrocyte.

The test system of data set [16] is Plasmodium falciparum. As to the kind of experiment: Antimalarial activity against Plasmodium falciparum K1CB1 harboring DHFR […] mutant infected in human erythrocytes assessed as reduction in [3H]-hypoxanthine incorporation pretreated for 20 hrs followed by [3H]-hypoxanthine addition measured after 20 hrs by radioactivity method. The data set is classed as functional, organism-based. The settings on record: K1CB1, Erythrocyte.

Data set [17] concerns DHFR (human against Plasmodium falciparum DHFR). Nature of the data set: Selectivity index, ratio of Ki for human DHFR expressed in Escherichia coli BL21 to Ki for Plasmodium falciparum DHFR expressed in Escherichia coli BL21. The data set is classed as toxicity. Particulars: read-out: Ratio Ki.

Consider `CC1N=C(N)N=C(N)N1OCCCOc1cc(Cl)c(Cl)cc1Cl` (stereo not drawn), for which the IC50 was 48 nM in the data set on Plasmodium falciparum [1]; 0.32 nM with Plasmodium falciparum [3]; 2.3 nM in the data set with Plasmodium falciparum [8]; 46000 nM in the data set on Vero; 300 nM in the data set with Plasmodium falciparum [13]; 35 nM with Plasmodium falciparum [15]. In addition, the 50% inhibitory concentration (IC50) with Plasmodium falciparum [16] stood at 19 nM. The selectivity ratio was determined as 153 in data set [2]; 47 in [4]; 40 in [7]; 20000 in data set [9]; 2420 in data set [10]; 79 in data set [17]. The Ki in data set [5] turned out to be 0.5 nM; in data set [6], 0.4 nM; in data set [11] it was 0.3 nM; in data set [12], 0.5 nM; in data set [14], 0.6 nM.
